The target of one assay is T1, EPB42_C586 (Homo sapiens, UniProt P16452).
T1 construct: endogenous in cells; host or cells: 22Rv1
T1 sequence (P16452 1-691): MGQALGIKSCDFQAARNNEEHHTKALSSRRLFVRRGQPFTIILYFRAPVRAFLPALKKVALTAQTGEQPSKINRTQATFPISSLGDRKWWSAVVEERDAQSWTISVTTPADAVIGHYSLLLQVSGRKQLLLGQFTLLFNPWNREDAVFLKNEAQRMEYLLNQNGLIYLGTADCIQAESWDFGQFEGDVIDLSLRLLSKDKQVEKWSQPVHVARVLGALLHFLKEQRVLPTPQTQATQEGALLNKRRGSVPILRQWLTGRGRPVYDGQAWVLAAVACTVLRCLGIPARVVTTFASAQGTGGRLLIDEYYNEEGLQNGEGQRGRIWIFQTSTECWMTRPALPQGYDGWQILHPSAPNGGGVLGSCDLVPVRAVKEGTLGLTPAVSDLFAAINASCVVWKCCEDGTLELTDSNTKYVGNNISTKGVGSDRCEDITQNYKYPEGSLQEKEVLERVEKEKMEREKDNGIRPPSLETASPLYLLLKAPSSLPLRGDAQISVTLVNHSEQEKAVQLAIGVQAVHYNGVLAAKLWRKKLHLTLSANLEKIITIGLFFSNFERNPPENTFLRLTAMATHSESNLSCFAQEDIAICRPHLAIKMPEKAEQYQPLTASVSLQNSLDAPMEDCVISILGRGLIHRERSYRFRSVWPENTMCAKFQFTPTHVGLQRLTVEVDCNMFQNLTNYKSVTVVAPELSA
Kind of assay: IA-DTB cysteine engagement. The format is binding. To be noted: 22Rv1 cells, 20 μM probe, 1 h, relative to DMSO. Summed up: (§1)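 Competitive chemoproteomics: residual cysteine reactivity toward IA-DTB in lysates from probe-treated cells was quantified by TMT reporter ions relative to DMSO-treated controls. Replicates sharing cell line, probe, concentration and duration were averaged.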

The next assay deals with T2, ANKRD46_C61 (Homo sapiens, UniProt Q86W74).
T2 construct: endogenous in cells; host or cells: 22Rv1
T2 sequence (Q86W74 1-228): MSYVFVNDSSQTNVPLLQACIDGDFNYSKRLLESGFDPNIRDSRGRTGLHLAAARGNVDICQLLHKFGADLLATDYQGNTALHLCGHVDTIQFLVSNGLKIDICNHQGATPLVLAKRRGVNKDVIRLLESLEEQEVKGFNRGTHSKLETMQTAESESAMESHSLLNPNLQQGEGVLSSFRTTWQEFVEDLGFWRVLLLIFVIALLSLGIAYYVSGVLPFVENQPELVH
Briefly: IA-DTB cysteine engagement. To be noted: 22Rv1 cells, 20 μM probe, 1 h, relative to DMSO. The format is binding. Summed up: as §1

Consider `C=CC(=O)N1C[C@H](c2ccc(Br)cc2)[C@H]1C(=O)Nc1cccc2cccnc12` [MY-3A, (2S,3S)-1-acryloyl-3-(4-bromophenyl)-N-(quinolin-8-yl)azetidine-2-carboxamide], for which, at EPB42_C586, the “% engagement EPB42_C586” value is 66.5%. Moreover, the “% engagement ANKRD46_C61” value at ANKRD46_C61 was found to be 5.5%.
The matching figures for `C=CC(=O)N1C[C@@H](c2ccc(Br)cc2)[C@H]1C(=O)Nc1cccc2cccnc12` [MY-1A, (2S,3R)-1-acryloyl-3-(4-bromophenyl)-N-(quinolin-8-yl)azetidine-2-carboxamide]: 55% and 17.5%.
The matching figures for `C=CC(=O)N1C[C@H](c2ccc(Br)cc2)[C@@H]1C(=O)Nc1cccc2cccnc12` [MY-1B, (2R,3S)-1-acryloyl-3-(4-bromophenyl)-N-(quinolin-8-yl)azetidine-2-carboxamide]: 33.5% and 28.5%.
For `C=CC(=O)N1C[C@H](c2ccc(Br)cc2)[C@H]1C(=O)Nc1cccc2cccnc12` [MY-3B, (2S,3S)-1-acryloyl-3-(4-bromophenyl)-N-(quinolin-8-yl)azetidine-2-carboxamide], in that order: 43.5% and 66.5%.

The record behind these values is US20250034216A1, “STEREOSELECTIVE COVALENT LIGANDS FOR ONCOGENIC AND IMMUNOLOGICAL PROTEINS” (The Scripps Research Institute, priority 2021, published 2025).
